Values quoted from earlier work in patent publication US20060205810A1, “Platinum therapeutic combinations” (Schering Corporation, priority 2004, published 2006).

Legend:
[1] = system: human ovarian carcinoma cells
[2] = system: intrinsic and acquired resistance to cisplatin; conditions: cell culture studies
[3] = incubated with fresh human whole blood in vitro
[4] = system: small cell lung cancer (SCLC); conditions: small cell lung cancer patients

Structure (SMILES) | cytotoxicity compared with cisplatin [1] | circumvention of resistance to cisplatin [2] | added platinum associated with red blood cells [3] [%] | half-life for the disappearance of the drug [3] [min] | complete responses [4] | median overall survival time [4] [days] | tumor response rate ([4]; 10 of 26) [%]
N.NC1CCCCC1.[Cl-].[Cl-].[Pt+2] [JM118] | greater cytotoxicity than cisplatin | can partially circumvent intrinsic and acquired resistance to cisplatin |  |  |  |  | 
CC(=O)[O][Pt]([NH2])([Cl])([Cl])([NH]C1CCCCC1)[O]C(C)=O [satraplatin] |  | can partially circumvent intrinsic and acquired resistance to cisplatin | 62 | 6.3 | no complete responses | 210 | 38
